Data: patent US9364454B2, “Anti-inflammatory actions of neuroprotectin D1/protectin D1 and its natural stereoisomers” (The Brigham and Women's Hospital, Inc., priority 2005, dated 2016)
Entries after “also recorded” stand apart in the source; their conditions may differ. Like-named read-outs stand apart in the source and are kept apart here.

Columns and labels:
male FvB mice [1] = assay: Airway responsiveness to aerosolized methacholine in OVA-sensitized/challenged mice; format: in vivo, mouse
Method: (§1) Five to seven week old male FvB mice (Charles River Laboratories) were housed in isolation cages under viral antibody-free conditions. Mice were fed a standard diet (Laboratory Rodent Diet 5001, PMI Nutrition International) that contained no less than 4.5% total fat with 0.26% omega-3 fatty acids and <0.01% C20:4. After Harvard Medical Area IRB approval (Protocol #02570), mice were sensitized with intraperitoneal injections of ovalbumin (OVA) (Grade III; Sigma Chemical Co.) (10 μg) plus 1 mg aluminum hydroxide (ALUM) (J.T. Baker Chemical Co.) as adjuvant in 0.2 ml PBS on days 0 and 7. On days 14, 15, 16 and 17, the mice received PD1 (2, 20 or 200 ng) (a product of biogenic synthesis (52)) or PBS with 1.6 mM CaCl2 and 1.6 mM MgCl2 (0.1 ml) by intravenous injection 30 min prior to an aerosol challenge containing either PBS or 6% OVA for 25 min/day. Matching experiments were performed with 20 ng PD1 prepared by total organic synthesis (62).
On day 18, 24 h after the last aerosol challenge, either airway responsiveness to aerosolized methacholine (0, 20, 50 and 75 mg, 10 sec) was measured, bilateral bronchoalveolar lavage (BAL) (2 aliquots of 1 ml PBS plus 0.6 mM EDTA) was performed or tissues were harvested for histological analysis. Lung resistance was measured using a Flexivent ventilator (SciReq). Resistance was measured as a function of time for each animal, and peak and average values for each dose of methacholine were recorded. No BAL or histological analysis was performed on those animals undergoing airway hyper-responsiveness or lipid extraction studies.

FVB male mice [2] = settings: cited from earlier work
[3] = tested on: human PMN transmigration across endothelial cells; assay: Human PMN transmigration across HMEC monolayers, LTB4-induced; format: cell-based
Method: PMN were freshly isolated from whole blood obtained by venipuncture from healthy human donors (who denied taking medication for 2 weeks prior to donation; BWH protocol no. 88-02642) and anti-coagulated with acid citrate dextrose as in (40, 41). Briefly, plasma and mononuclear cells were removed by aspiration from the buffy coat after centrifugation (400 g; 20 min) at room temperature. Histopaque (density 1.077) was from Sigma-Aldrich (St. Louis, Mo.). RBCs were sedimented using 2% gelatin, and residual RBCs were removed by lysis in ice-cold NH4Cl buffer. The cell suspensions were >90% PMN as determined by light microscopic evaluation. PMN were suspended at 5×10^7 cells/ml in HBSS with 10 mM Hepes, pH 7.4, and without Ca^2+ or Mg^2+ (Sigma-Aldrich, St. Louis, Mo.). PMN were used within 2 hours of their isolation.
Human Microvascular Endothelial Cells (HMEC; a gift from Francisco Candal of the Centers for Disease Control, Atlanta, Ga.) were obtained as primary cultures. For preparation of experimental HMEC monolayers, confluent endothelial cells were grown on 0.33 cm^2 ring-supported polycarbonate filters (5 μm pore size; Costar Corp., Cambridge, Mass.) in the apical-to-basolateral direction. Cells were grown for ˜1 week prior to transmigration experiments.
Transmigration was conducted essentially as in ref. (41). PMN were incubated with either vehicle-containing buffer or compound for 15 minutes at 37° C. A chemotactic gradient was established by placing HMEC inserts that had been washed in HBSS with Ca^2+ and Mg^2+ (denoted +/+) in 10^−8M LTB4 in the lower chambers. Neutrophils (10^6 cells) were added to 50 μl HBSS +/+ in the upper chambers and cells were incubated at 37° C. for 90 min. Transmigrated PMN were quantified by assessing the PMN azurophilic marker myeloperoxidase and a calibration curve. PMN were lysed by the addition of Triton X-100 to a final concentration of 0.5%. The samples were acidified with citrate buffer (final concentration 100 mM, pH 4.2). An aliquot of each sample was added to an equal volume of ABTS solution (1 mM ABTS [2′-azino-bis(3-ethylbenzo-thiazoline-6-sulfonic acid)], 0.03% H2O2, 100 mM sodium citrate buffer, pH 4.2) in a 96-well plate. The resulting color was monitored using a plate reader at 405 nm and a calibration curve for cell number.

FVB male mice [4] = assay: Acute inflammatory exudates: zymosan A murine peritonitis (leukocyte infiltration); format: in vivo, mouse
Method: Peritonitis was carried out using 6-8 week-old FVB male mice (Charles River Laboratories) fed laboratory Rodent Diet 5001 (Purina Mills) that were anesthetized with isoflurane, and compounds to be tested were administered intraperitoneally. […] Each compound tested or vehicle alone was suspended in 1 μl ethanol and mixed in sterile saline (120 μl). After intraperitoneal injections (either 2 or 4 hours of acute inflammation), the mice were sacrificed in accordance with the Harvard Medical Area Standing Committee on Animals protocol no. 02570, and peritoneal lavages were collected rapidly and placed in an ice bath (4° C.) for enumeration, differential counts, and further analysis.

male FvB mice [5] = format: in vivo
Method: as §1
On day 18, 24 h after the last aerosol challenge, either airway responsiveness to aerosolized methacholine (0, 20, 50 and 75 mg, 10 sec) was measured, bilateral bronchoalveolar lavage (BAL) (2 aliquots of 1 ml PBS plus 0.6 mM EDTA) was performed or tissues were harvested for histological analysis. Lung resistance was measured using a Flexivent ventilator (SciReq). Resistance was measured as a function of time for each animal, and peak and average values for each dose of methacholine were recorded. […]
Murine lungs were fixed in 10% buffered formalin and paraffin embedded for hematoxylin and eosin and periodic acid Schiff staining (Sigma Chemical Co.). […] Three fields per slide were examined at 200× magnification for vessels, large airways and alveoli with EOS counted at 400× magnification in randomly assigned fields. […] Measurement of inflammatory mediators was determined in cell-free BAL fluid (BALF) (2000 g, 10 min) by sensitive and specific ELISAs, in tandem, for interleukin-5 (IL-5), IL-12, IL-13, PGD2 (R&D Systems), cysteinyl LTs, (Cayman Chemical Co.), and LXA4 (Neogen). […]

male FvB mice [6] = assay: PD1 given after aeroallergen challenge (days 18-20), BAL on day 21; format: in vivo, mouse
Method: In select experiments, animals were sensitized and aeroallergen challenged for four days prior to receiving PD1 (20 ng) or PBS by intravenous injection (0.1 ml) on days 18, 19 and 20. On day 21, bilateral BAL was performed.
Murine lungs were fixed in 10% buffered formalin and paraffin embedded for hematoxylin and eosin and periodic acid Schiff staining (Sigma Chemical Co.). Tissue morphometry was performed by a member (K. Haley) of the Lung Histopathology Core Laboratory at Brigham and Women's Hospital who was blinded to the experimental conditions prior to histological analyses. Three fields per slide were examined at 200× magnification for vessels, large airways and alveoli with EOS counted at 400× magnification in randomly assigned fields. Vessels were identified by perivascular smooth muscle, and large airways were identified by at least ½ their diameter either cuboidal or columnar epithelia. Measurement of inflammatory mediators was determined in cell-free BAL fluid (BALF) (2000 g, 10 min) by sensitive and specific ELISAs, in tandem, for interleukin-5 (IL-5), IL-12, IL-13, PGD2 (R&D Systems), cysteinyl LTs, (Cayman Chemical Co.), and LXA4 (Neogen). Cells in BALF were resuspended in PBS, enumerated by hemocytometer, and concentrated onto microscope slides by cytocentrifuge (STATspin) (265 g). […]

CC/C=C\C[C@H](O)\C=C/C=C/C=C/[C@H](O)C/C=C\C/C=C\CCC(=O)O [PD1, 10R,17S-dihydroxy-docosa-4Z,7Z,11E,13E,15Z,19Z-hexaenoic acid]
shape of dose response, protection on airway hyper-responsiveness (male FvB mice [1]; 2, 20, 200 ng): bell-shaped dose response with maximal protection | log ED200 for the mean airway resistance (male FvB mice [1]; 2, 20 and 200 ng, compared with vehicle): significantly increased | airway hyper-responsiveness: peak and average lung resistance in response to methacholine (male FvB mice [1]; PD1 0-200 ng i.v. prior to OVA challenge): decreased both peak and average lung resistance; also recorded: dampened; also recorded: reduces airway hyper-responsiveness | lung elastance or compliance (male FvB mice [1]; following allergen challenge (data not shown)): no significant changes | airway responses of control animals that received PBS rather than allergen (male FvB mice [1]; mouse, in vivo): no significant impact | inhibition of PMN infiltration (FVB male mice [2]; 100 ng/mouse, i.v., earlier experiments (ref 1)): ~40% | apparent maximal response, reduction of PMN infiltration (FVB male mice [2]; doses as low as 100 ng/mouse (ref 1)): ~50% | potency versus indomethacin in reducing PMN infiltration (FVB male mice [2]; i.v., earlier experiments (ref 1)): more potent than indomethacin | inhibition of PMN transmigration ([3]; 1.0 nM, in response to leukotriene B4): 30% | attenuation of human neutrophil transmigration ([3]; 10 nM, LTB4 10^-8 M, 90 min): ~50% | reduction of PMN transmigration ([3]; 10-100 nM, in vitro): 35-45% | highest degree of inhibition of neutrophil transmigration observed ([3]; HMEC monolayers, neutrophils from >5 separate donors, each experiment): ≤ 50% | effect on LTB4-induced PMN transmigration (in words) ([3]; compound 15 min, LTB4 10^-8 M 90 min): reduced PMN transmigration; also recorded: inhibited LTB4-induced PMN migration; also recorded: stereoselectively reduces PMN transmigration in vitro | rank order of potency (FVB male mice [4]; 0.1 ng dose): Compound VI>>PD1>10S,17S-DT (the double dioxygenation product)>the Δ15-trans-PD1>>Compound V | activity on PMN infiltration (in words) (FVB male mice [4]; 1 ng/mouse dose): striking inhibition of PMN infiltration | PMN infiltration when given after initiation of inflammation (in words) (FVB male mice [4]; 1 ng/mouse i.p. 2 h after zymosan A, lavage at 4 h): diminished infiltration of PMN; also recorded: reduces PMN infiltration; also recorded: reduced PMN infiltration after initiation (2 h) of inflammation | inhibition of PMN infiltration (FVB male mice [4]; 1 ng/mouse, peritonitis): ~40% | inhibition of PMN infiltration (FVB male mice [4]; 10 ng and 100 ng doses (maintained)): ~40% | kind of joint anti-inflammatory action of PD1 and RvE1 (FVB male mice [4]; 10 ng/mouse i.p. of either or both, 2 h): additive rather than synergistic | PMN infiltration, PD1 and RvE1 administered together (in words) (FVB male mice [4]; 10 ng/mouse i.p., exudates at 2 h): reduced the infiltration of PMN | PMN infiltration (in words) (FVB male mice [4]; 10 ng/mouse, 4 h after injection (FIG. 9)): reduced PMN infiltration; also recorded: Statistically different from *zymosan A-injected mice | rank order of potency (FVB male mice [4]; 1-10 ng dose): PD1≈PD1 methyl ester>>Δ15-trans PD1>10S,17S-diHDHA (isomer I) | anti-inflammatory potency in vivo, PMN infiltration (in words) (FVB male mice [4]; dose range tested (FIG. 6), lavage at 2 h): dramatically reduced the infiltration of PMN into the peritoneum; also recorded: more potent than the dioxygenation product; also recorded: potent regulator of PMN infiltration in vivo | blocking of further PMN infiltration (FVB male mice [4]; given 2 h after zymosan A challenge): > 90% | recruitment of monocytes and lymphocytes to exudates (in words) (FVB male mice [4]; peritonitis, differential counts): increased the non-phlogistic recruitment of monocytes and lymphocytes; also recorded: regulated both monocyte and lymphocyte traffic | EOS and Lymphs in the peribronchial regions and airspaces (histology) (male FvB mice [5]; 2, 20 or 200 ng i.v., versus vehicle): substantially less EOS and Lymphs | EOS tissue infiltration around vessels and in large and peripheral airways (morphometry) (male FvB mice [5]; PD1 i.v. prior to challenge): significant decreases | EOS trafficking (male FvB mice [5]; as little as 2 ng of PD1): reduced | numbers of total leukocytes, Eos and Lymphs in BALFs (male FvB mice [6]; 20 ng iv once a day for three days after challenge, day 21): significant decrements | resolution of allergic airway inflammation (in words) (male FvB mice [6]; PD1 treatment after aeroallergen challenge): has the capacity to accelerate resolution of allergic airway inflammation; also recorded: promoted the resolution of airway inflammation; also recorded: promotes resolution of allergen-driven leukocytes; also recorded: markedly accelerated the resolution of airway inflammation
